Here are results for six molecules from publication PMC3136501 (PLoS ONE, 2011).

Where two headings read alike, the source gives them in different places.

Series [1] deals with T1, human OCT2 (Homo sapiens, UniProt O15244).
T1 construct: OCT2: NP_003049.2; expressed in transfected cells; host or cells: HEK293 (ATCC), stably transfected with pcDNA3.1(+)-SLC22A2
T1 sequence (O15244 1-555): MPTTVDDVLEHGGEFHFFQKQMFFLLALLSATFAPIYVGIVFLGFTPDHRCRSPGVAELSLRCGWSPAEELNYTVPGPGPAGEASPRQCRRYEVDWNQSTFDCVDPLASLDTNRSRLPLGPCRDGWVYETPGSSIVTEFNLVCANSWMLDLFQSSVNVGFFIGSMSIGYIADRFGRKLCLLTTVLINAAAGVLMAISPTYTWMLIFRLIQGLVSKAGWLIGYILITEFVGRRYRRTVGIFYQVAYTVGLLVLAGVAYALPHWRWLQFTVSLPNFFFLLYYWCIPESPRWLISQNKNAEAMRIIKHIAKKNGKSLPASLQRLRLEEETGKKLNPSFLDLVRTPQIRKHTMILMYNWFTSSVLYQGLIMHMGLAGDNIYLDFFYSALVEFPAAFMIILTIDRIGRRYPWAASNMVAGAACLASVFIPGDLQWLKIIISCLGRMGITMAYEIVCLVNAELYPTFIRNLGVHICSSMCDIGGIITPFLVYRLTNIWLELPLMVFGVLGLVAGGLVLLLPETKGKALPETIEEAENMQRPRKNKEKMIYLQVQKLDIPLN
Briefly: Inhibition of OCT2-mediated metformin uptake in stably transfected HEK cells. In kind it is cell-based. The note with it: for IC50: 5 µM [14C]metformin uptake, 5 sec, HEK-OCT2, means ± SE of 3 experiments. Here is the method: (§1) SLC22A1 cDNA and SLC22A2 cDNA had been PCR-amplified from human liver and kidney, respectively, as reported elsewhere and cDNAs were provided by the German Cancer Research Center; the study and the use of the tissue were approved by the institutional review board of the German Cancer Center, Heidelberg, Germany. Since the data were analyzed anonymously, and tissues were left-over samples from diagnostic procedures, written informed consent had not been required and obtained. IRB specifically waived the need for consent due to the fact the human tissue material used was fully anonymized. SLC22A3 cDNA was amplified using SLC22A3-TrueClone (Origene, Rockville, MD, USA) as the template. SLC22A1 cDNA was cloned into the expression vector pcDNA3.1/Hygro(-) (Invitrogen, Darmstadt, Germany), SLC22A2 and SLC22A3 cDNA into pcDNA3.1(+) (Invitrogen). […] HEK cells were grown in DMEM (Sigma) supplemented with 10% fetal bovine serum (Sigma), 100 U⋅ml^−1 penicillin, and 100 µg⋅ml^−1 streptomycin (Lonza, Basel, Switzerland) at 37°C and 5% CO2. HEK cells were transfected with Metafectene Pro (Biontex, München, Germany). Selection of clones stably expressing OCT1 was carried out with 0.5 mg⋅ml^−1 hygromycin as described. Similarly, clones stably expressing OCT2 or OCT3 were selected with 800 µg⋅ml^−1 G418. HEK cells stably transfected with the empty pcDNA3.1(+) vector served as controls (HEK-Co). Cells were incubated with 5 mM butyrate 24 h before use to increase protein levels of recombinant transporters.
(§2) HEK cells (400000 cells/well) were seeded into 24-well cell culture plates (Greiner Bio-One, Frickenhausen, Germany) and grown for 48 h. Cell adherence was improved by coating plates with poly-L-lysine (Biochrom AG, Berlin, Germany) prior to cell plating. All uptake studies were carried out at 37°C as described. […] Uptake was stopped at indicated time points by removing the uptake buffer and immediately washing the cells 3 times with ice-cold uptake buffer. Cells were lysed with 0.2% SDS and intracellular radioactivity was determined by liquid scintillation counting (Hidex 300SL TDCR liquid scintillation counter, Turku, Finland).
(§3) OCT-specific metformin uptake was obtained by subtracting metformin uptake in the presence of 2 mM unlabeled 1-methyl-4-phenylpyridinium (MPP) from that in its absence. […] OCT-specific metformin uptake in the presence of a PPI was then calculated as percentage of that in the absence of the respective PPI (100% uninhibited). For each PPI concentration, 3 individual experiments each with 3 parallel measurements were performed. Apparent IC50 values for inhibition of metformin uptake by PPIs were calculated for each individual experiment by fitting the values to the Hill equation using GraphPad Prism 4 (GraphPad Software Inc., La Jolla, CA, USA). Values in Table 1 are given as the means ± SE of the 3 individual experiments.

Details of series [2]: method as in earlier work. The following applies: computed property from PubChem Compound database; cited from earlier work.
Series [3] addresses T2, human OCT1 (Homo sapiens, UniProt O15245).
T2 sequence (O15245 1-554): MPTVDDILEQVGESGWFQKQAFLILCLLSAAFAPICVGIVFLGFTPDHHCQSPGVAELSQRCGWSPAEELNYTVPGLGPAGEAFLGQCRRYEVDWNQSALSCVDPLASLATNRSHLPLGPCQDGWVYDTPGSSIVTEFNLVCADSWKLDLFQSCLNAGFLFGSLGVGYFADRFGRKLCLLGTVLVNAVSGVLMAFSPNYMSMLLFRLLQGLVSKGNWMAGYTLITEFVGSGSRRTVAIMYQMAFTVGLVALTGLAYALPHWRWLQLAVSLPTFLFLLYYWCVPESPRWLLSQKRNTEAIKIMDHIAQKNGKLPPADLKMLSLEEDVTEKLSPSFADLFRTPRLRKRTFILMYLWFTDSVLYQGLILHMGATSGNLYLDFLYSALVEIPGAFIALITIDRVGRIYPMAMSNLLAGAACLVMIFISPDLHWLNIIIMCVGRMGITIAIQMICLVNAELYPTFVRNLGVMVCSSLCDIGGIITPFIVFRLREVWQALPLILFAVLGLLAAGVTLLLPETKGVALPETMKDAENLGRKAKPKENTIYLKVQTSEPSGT
Briefly: Inhibition of OCT1-mediated metformin uptake in stably transfected HEK cells. It is filed as cell-based. The note with it: for IC50: 5 µM [14C]metformin uptake, 5 min, HEK-OCT1, means ± SE of 3 experiments. Here is the method: as §1, §2, §3

Series [4] can be described thus: Pharmacokinetic data of PPIs in humans. The following applies: maximal total concentration in portal venous blood. In kind it is in vivo.
For series [5] the following is noted: humans, maximal total concentration in systemic circulation, cited from earlier work.
The subject of series [6] is OCT2. More on the design: method as in PMID 21103969. The note with it: transport substrate; cited from earlier work.
Series [7] has as its system OCT3. Also noted: method as in PMID 21103969. The following applies: transport substrate; cited from earlier work.
The subject of series [8] is OCT1. Also noted: method as in PMID 21103969. The note with it: transport substrate; cited from earlier work.
Where [9] appears, read: 5 µM metformin, 2 mM unlabeled MPP.

In the case of `Cc1c(OCC(F)(F)F)ccnc1C[S+]([O-])c1nc2ccccc2[nH]1` (stereo not drawn) [Lansoprazole], in series [1], the IC50 was found to be 9.5 ± 3.8 µM. In series [2], the Heavy atom count is 25 and the Tautomer count is recorded as 0. Also, the midpoint of inhibition in series [3], the IC50, lay at 35.8 ± 5.8 µM. Besides, the “Calculated Cport.vn.” value in series [4] (equation 1 in ref 56, dosage 30 mg (81 µmol)) is given as 7.8 µM. In series [5] (dosage 30 mg (81 µmol)), the Cmax was 2700 nM.

As for `C[n+]1ccc(-c2ccccc2)cc1` [MPP, 1-methyl-4-phenylpyridinium], the “Metformin uptake by HEK-OCT2 in the presence of MPP” value in series [1] (setting [9]) is reported as “almost completely absent”. The “Metformin uptake by HEK-OCT1 in the presence of MPP” value in series [3] (setting [9]) is “almost completely absent”. Besides, the results for the Michaelis-Menten constant (Km) in series [6], in series [7] and in series [8] were 3 to 19 µM, 47 to 83 µM and 15 to 32 µM, respectively.

In turn, `COc1ccc2[nH]c([S+]([O-])Cc3ncc(C)c(OC)c3C)nc2c1` (stereo not drawn) [Omeprazole] gave a 50% inhibitory concentration (IC50) in series [1] of 6.7 ± 2.1 µM. Moreover, in series [2], the Heavy atom count is given as 24 and the Tautomer count is given as 2. The molecule also displayed an IC50 in series [3] of 15.7 ± 3.8 µM. Moreover, the “Calculated Cport.vn.” value in series [4] (equation 1 in ref 56, dosage 20 mg (58 µmol)) was 5.4 µM. In addition, in series [5] (dosage 20 mg (58 µmol)), the peak concentration (Cmax) was 1800 nM.

`COc1ccnc(C[S+]([O-])c2nc3ccc(OC(F)F)cc3[nH]2)c1OC` (stereo not drawn) [Pantoprazole] yielded a concentration for half-maximal inhibition (IC50) in series [1] of 2.8 ± 0.9 µM. Also, in series [2], the Heavy atom count is given as 26 and the Tautomer count is 2. Besides, in series [3], half-maximal inhibition (IC50) was put at 30.8 ± 8.8 µM. Further, the “Calculated Cport.vn.” value in series [4] (equation 1 in ref 56, dosage 40 mg (104 µmol)) is 12.0 µM. Moreover, the peak concentration (Cmax) in series [5] (dosage 40 mg (104 µmol)) was 5500 nM.

The molecule `COCCCOc1ccnc(C[S+]([O-])c2nc3ccccc3[nH]2)c1C` (stereo not drawn) [Rabeprazole] gave an IC50 in series [1] of 5.7 ± 0.5 µM. In series [2], the Heavy atom count is 25 and the Tautomer count is listed as 0. The same molecule showed an IC50 in series [3] of 3 ± 1.7 µM. Further, in series [3] (low concentrations of PPI, Figure 3), the “OCT1-mediated metformin uptake at low PPI concentrations” value is listed as “activated”. For the same molecule, in series [4] (equation 1 in ref 56, dosage 20 mg (56 µmol)), the “Calculated Cport.vn.” value is 4.7 µM. The Cmax in series [5] (dosage 20 mg (56 µmol)) was 1200 nM.

Molecule `COc1ccc2[nH]c([S+]([O-])Cc3ncc(C)c(OC)c3C)nc2n1` (stereo not drawn) [Tenatoprazole] had an IC50 in series [1] of 20.3 ± 7.2 µM. In addition, in series [2], the Heavy atom count is 24 and the Tautomer count is on record as 3. Moreover, the half-maximal inhibitory concentration (IC50) in series [3] stood at 23.3 ± 7.1 µM. The “Calculated Cport.vn.” value in series [4] (equation 1 in ref 56, dosage 40 mg (116 µmol)) was 17.2 µM. In addition, in series [5] (dosage 40 mg (116 µmol)), the peak concentration (Cmax) was 10000 nM.

As a reminder, the IC50 is the concentration needed to halve the response being measured. Low readings indicate greater potency in that assay, high ones weaker potency in that assay. What is called Cmax is the highest concentration seen after dosing. One may read the Km as the concentration of substrate that gives half-maximal velocity.
